In the supplement of paper PMC10307832:

How the values were obtained:
Assay in all cases: relative viability (nuclei count vs DMSO), 5 days (fraction); higher = more cells survive
NCI-H522 = tested on: NCI-H522
How it was run: (§1)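 Five library-drug doses in √10 steps were combined with a fixed anchor-drug dose, or a single drug was given alone, by pin tool to lung cancer cell lines in 1536-well plates the day after seeding. Nuclei were stained and counted after 5 days. Relative viability is the nuclei count in treated wells over that in vehicle wells, taken as the median of duplicate plates.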

NCI-H1651 = tested on: NCI-H1651
How it was run: as §1

NCI-H838 = tested on: NCI-H838
How it was run: as §1

LCLC-97TM1 = tested on: LCLC-97TM1
How it was run: as §1

NCI-H1793 = tested on: NCI-H1793
How it was run: as §1

HARA = tested on: HARA
How it was run: as §1

201T = tested on: 201T
How it was run: as §1

NCI-H2405 = tested on: NCI-H2405
How it was run: as §1

A-427 = tested on: A-427
How it was run: as §1

NCI-H2347 = tested on: NCI-H2347
How it was run: as §1

RERF-LC-KJ = tested on: RERF-LC-KJ
How it was run: as §1

NCI-H1650 = tested on: NCI-H1650
How it was run: as §1

LOU-NH91 = tested on: LOU-NH91
How it was run: as §1

PC-3 [JPC-3] = tested on: PC-3 [JPC-3]
How it was run: as §1

HCC-78 = tested on: HCC-78
How it was run: as §1

LK-2 = tested on: LK-2
How it was run: as §1

NCI-H23 = tested on: NCI-H23
How it was run: as §1

UMC-11 = tested on: UMC-11
How it was run: as §1

COR-L23 = tested on: COR-L23
How it was run: as §1

NCI-H520 = tested on: NCI-H520
How it was run: as §1

LCLC-103H = tested on: LCLC-103H
How it was run: as §1

LXF-289 = tested on: LXF-289
How it was run: as §1

NCI-H647 = tested on: NCI-H647
How it was run: as §1

CCNC(=O)c1noc(-c2cc(C(C)C)c(O)cc2O)c1-c1ccc(CN2CCOCC2)cc1 [Luminespib] + COc1cccc2cc(-c3nc([C@H]4CC[C@H](C(=O)O)CC4)n4ncnc(N)c34)[nH]c12 [OSI-027] (partner 0.5 µM)
relative viability (NCI-H522; first compound 0.002 µM): 0.687 | relative viability (NCI-H522; first compound 0.006325 µM): 0.732 | relative viability (NCI-H522; first compound 0.02 µM): 0.615 | relative viability (NCI-H522; first compound 0.06325 µM): 0.538 | relative viability (NCI-H522; first compound 0.2 µM): 0.587 | relative viability (NCI-H1651; first compound 0.002 µM): 0.818 | relative viability (NCI-H1651; first compound 0.006325 µM): 0.622 | relative viability (NCI-H1651; first compound 0.02 µM): 0.42 | relative viability (NCI-H1651; first compound 0.06325 µM): 0.377 | relative viability (NCI-H1651; first compound 0.2 µM): 0.18 | relative viability (NCI-H838; first compound 0.002 µM): 0.391 | relative viability (NCI-H838; first compound 0.006325 µM): 0.375 | relative viability (NCI-H838; first compound 0.02 µM): 0.275 | relative viability (NCI-H838; first compound 0.06325 µM): 0.134 | relative viability (NCI-H838; first compound 0.2 µM): 0.149 | relative viability (LCLC-97TM1; first compound 0.002 µM): 0.543 | relative viability (LCLC-97TM1; first compound 0.006325 µM): 0.601 | relative viability (LCLC-97TM1; first compound 0.02 µM): 0.304 | relative viability (LCLC-97TM1; first compound 0.06325 µM): 0.492 | relative viability (LCLC-97TM1; first compound 0.2 µM): 0.114 | relative viability (NCI-H1793; first compound 0.002 µM): 0.257 | relative viability (NCI-H1793; first compound 0.006325 µM): 0.246 | relative viability (NCI-H1793; first compound 0.02 µM): 0.199 | relative viability (NCI-H1793; first compound 0.06325 µM): 0.125 | relative viability (NCI-H1793; first compound 0.2 µM): 0.112 | relative viability (HARA; first compound 0.002 µM): 0.511 | relative viability (HARA; first compound 0.006325 µM): 0.281 | relative viability (HARA; first compound 0.02 µM): 0.381 | relative viability (HARA; first compound 0.06325 µM): 0.0542 | relative viability (HARA; first compound 0.2 µM): 0.0658 | relative viability (201T; first compound 0.002 µM): 0.756 | relative viability (201T; first compound 0.02 µM): 0.668 | relative viability (201T; first compound 0.06325 µM): 0.492 | relative viability (201T; first compound 0.2 µM): 0.159 | relative viability (NCI-H2405; first compound 0.002 µM): 0.648 | relative viability (NCI-H2405; first compound 0.006325 µM): 0.545 | relative viability (NCI-H2405; first compound 0.02 µM): 0.532 | relative viability (NCI-H2405; first compound 0.06325 µM): 0.196 | relative viability (NCI-H2405; first compound 0.2 µM): 0.192 | relative viability (A-427; first compound 0.002 µM): 0.462 | relative viability (A-427; first compound 0.006325 µM): 0.396 | relative viability (A-427; first compound 0.02 µM): 0.366 | relative viability (A-427; first compound 0.06325 µM): 0.158 | relative viability (A-427; first compound 0.2 µM): 0.121 | relative viability (NCI-H2347; first compound 0.002 µM): 0.414 | relative viability (NCI-H2347; first compound 0.006325 µM): 0.355 | relative viability (NCI-H2347; first compound 0.02 µM): 0.41 | relative viability (NCI-H2347; first compound 0.06325 µM): 0.185 | relative viability (NCI-H2347; first compound 0.2 µM): 0.227 | relative viability (RERF-LC-KJ; first compound 0.002 µM): 0.584 | relative viability (RERF-LC-KJ; first compound 0.006325 µM): 0.536 | relative viability (RERF-LC-KJ; first compound 0.02 µM): 0.346 | relative viability (RERF-LC-KJ; first compound 0.06325 µM): 0.207 | relative viability (RERF-LC-KJ; first compound 0.2 µM): 0.195 | relative viability (NCI-H1650; first compound 0.002 µM): 0.717 | relative viability (NCI-H1650; first compound 0.006325 µM): 0.44 | relative viability (NCI-H1650; first compound 0.02 µM): 0.163 | relative viability (NCI-H1650; first compound 0.06325 µM): 0.0992 | relative viability (NCI-H1650; first compound 0.2 µM): 0.148 | relative viability (LOU-NH91; first compound 0.002 µM): 0.684 | relative viability (LOU-NH91; first compound 0.006325 µM): 0.74 | relative viability (LOU-NH91; first compound 0.02 µM): 0.492 | relative viability (LOU-NH91; first compound 0.06325 µM): 0.319 | relative viability (LOU-NH91; first compound 0.2 µM): 0.295 | relative viability (PC-3 [JPC-3]; first compound 0.002 µM): 0.813 | relative viability (PC-3 [JPC-3]; first compound 0.006325 µM): 0.718 | relative viability (PC-3 [JPC-3]; first compound 0.02 µM): 0.583 | relative viability (PC-3 [JPC-3]; first compound 0.06325 µM): 0.58 | relative viability (PC-3 [JPC-3]; first compound 0.2 µM): 0.225 | relative viability (HCC-78; first compound 0.002 µM): 0.361 | relative viability (HCC-78; first compound 0.006325 µM): 0.323 | relative viability (HCC-78; first compound 0.06325 µM): 0.412 | relative viability (HCC-78; first compound 0.2 µM): 0.301 | relative viability (LK-2; first compound 0.002 µM): 0.209 | relative viability (LK-2; first compound 0.006325 µM): 0.191 | relative viability (LK-2; first compound 0.02 µM): 0.149 | relative viability (LK-2; first compound 0.06325 µM): 0.12 | relative viability (LK-2; first compound 0.2 µM): 0.136 | relative viability (NCI-H23; first compound 0.002 µM): 0.503 | relative viability (NCI-H23; first compound 0.006325 µM): 0.508 | relative viability (NCI-H23; first compound 0.02 µM): 0.322 | relative viability (NCI-H23; first compound 0.06325 µM): 0.133 | relative viability (NCI-H23; first compound 0.2 µM): 0.136 | relative viability (UMC-11; first compound 0.002 µM): 0.538 | relative viability (UMC-11; first compound 0.006325 µM): 0.42 | relative viability (UMC-11; first compound 0.02 µM): 0.303 | relative viability (UMC-11; first compound 0.06325 µM): 0.224 | relative viability (UMC-11; first compound 0.2 µM): 0.207 | relative viability (COR-L23; first compound 0.002 µM): 0.925 | relative viability (COR-L23; first compound 0.006325 µM): 0.655 | relative viability (COR-L23; first compound 0.02 µM): 0.508 | relative viability (COR-L23; first compound 0.06325 µM): 0.079 | relative viability (COR-L23; first compound 0.2 µM): 0.0776 | relative viability (NCI-H520; first compound 0.002 µM): 0.247 | relative viability (NCI-H520; first compound 0.006325 µM): 0.27 | relative viability (NCI-H520; first compound 0.02 µM): 0.231 | relative viability (NCI-H520; first compound 0.06325 µM): 0.159 | relative viability (NCI-H520; first compound 0.2 µM): 0.158 | relative viability (LCLC-103H; first compound 0.002 µM): 0.457 | relative viability (LCLC-103H; first compound 0.006325 µM): 0.471 | relative viability (LCLC-103H; first compound 0.02 µM): 0.35 | relative viability (LCLC-103H; first compound 0.06325 µM): 0.503 | relative viability (LCLC-103H; first compound 0.2 µM): 0.383 | relative viability (LXF-289; first compound 0.002 µM): 0.751 | relative viability (LXF-289; first compound 0.006325 µM): 0.762 | relative viability (LXF-289; first compound 0.02 µM): 0.759 | relative viability (LXF-289; first compound 0.06325 µM): 0.163 | relative viability (LXF-289; first compound 0.2 µM): 0.0755 | relative viability (NCI-H647; first compound 0.002 µM): 0.717 | relative viability (NCI-H647; first compound 0.006325 µM): 0.626 | relative viability (NCI-H647; first compound 0.02 µM): 0.595 | relative viability (NCI-H647; first compound 0.06325 µM): 0.0814 | relative viability (NCI-H647; first compound 0.2 µM): 0.0562
